Results reported in patent publication US20060281174A1, “Methods for generating insulin-producing cells” (priority 2004, published 2006).

System: Human MSCs and Pancl cells
Assay: Co-culture of human MSCs and Pancl cells in induction media with added factors to potentiate differentiation
Assay type: cell-based
Conditions: MSC/Pancl co-culture, induction media 1% ITS, 2% BSA in DMEM; 100 μM, 10 days
Experimental: Design: Human MSCs from Clontech (Palo Alto, CA), passage 4-6, and Pancl cells from ATCC, passage 2-6, were used in the experiment. 5 ×10ˆ5 cells for both cells were seeded in 10 cm tissue culture treated dishes in a 1:1 combination media of DMEM containing 10% FBS and a MSC growth media purchased from CAMBREX (Walkersville, MD). After 2-3 days of culture, the media was replaced by the induction media containing1% ITS, 2% BSA in DMEM. The proteasome inhibitor, Lactocystin, was added into the media at the final concentration of 100 μM to potentiate the differentiation for 10 days.
Design: Human MSCs from Clontech, passage 4-6, and Pancl cells from ATCC, passage 2-6, were used in the experiment. 5 ×10ˆ5 cells for both cells were seeded in 10 cm tissue culture treated dishes in a 1:1 media of DMEM containing 10% FBS, and a MSC growth media purchased from CAMBREX. After 2-3 days of culture, the media was replaced by the induction media containing 1% ITS, 2% BSA in DMEM for 10 days. A growth factor cocktail containing bFGF, EGF, Exendin-4 and Nicotinamide, was added into the media to potentiate the differentiation.
Design: Human MSCs from Clontech, passage 4-6, and Pancl cells from ATCC, passage 2-6, were used in the experiment. 5 ×10ˆ5 cells for both cells were seeded in 10 cm tissue culture treated dishes in a 1:1 media of DMEM with 10% FBS, and MSC growth media purchased from CAMBREX. […]

CC(=O)N[C@@H](CSC(=O)[C@]1([C@@H](O)C(C)C)NC(=O)[C@H](C)[C@@H]1O)C(=O)O [Lactocystin]
expression of insulin: No formation of clusters or expression of insulin
formation of clusters: No formation of clusters
